In patent US7074789B2, “Kinase inhibitors” (Amgen Inc., priority 1999, dated 2006):

Key:
Type in all cases: biochemical
c-Met = target: T1, c-Met (Homo sapiens, UniProt P08581); assay: Kinase inhibition assay (33P transfer), c-Met; conditions: Table 2, kinase inhibition class; read-out: Met-1
T1 construct: Kinases are expressed as either kinase domains or full length constructs; made in house
How it was run: (§1)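 Radiometric format: recombinant tagged kinase (catalytic domain or whole protein, sometimes combined with regulatory polypeptides) phosphorylates immobilised poly(Glu,Tyr) 4:1 or poly(Arg,Ser) 3:1 using [33P]ATP. Wells are washed in 0.5% phosphoric acid, then counted. IC50 is taken where substrate labelling falls by half.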

FGFR1 = target: T2, FGFR1 (Homo sapiens, UniProt P11362); assay: Kinase inhibition assay (33P transfer), FGFR1; conditions: read-out: FGFR1-1
T2 construct: Kinases are expressed as either kinase domains or full length constructs; made in house

Hck-1 = target: T3, Hck-1 (Homo sapiens, UniProt P08631); assay: Kinase inhibition assay (33P transfer), Hck; conditions: Table 6, Hck-1 kinase inhibition class
T3 construct: Kinases are expressed as either kinase domains or full length constructs; made in house
T3 sequence (P08631 whole entry, the tested form may be a part): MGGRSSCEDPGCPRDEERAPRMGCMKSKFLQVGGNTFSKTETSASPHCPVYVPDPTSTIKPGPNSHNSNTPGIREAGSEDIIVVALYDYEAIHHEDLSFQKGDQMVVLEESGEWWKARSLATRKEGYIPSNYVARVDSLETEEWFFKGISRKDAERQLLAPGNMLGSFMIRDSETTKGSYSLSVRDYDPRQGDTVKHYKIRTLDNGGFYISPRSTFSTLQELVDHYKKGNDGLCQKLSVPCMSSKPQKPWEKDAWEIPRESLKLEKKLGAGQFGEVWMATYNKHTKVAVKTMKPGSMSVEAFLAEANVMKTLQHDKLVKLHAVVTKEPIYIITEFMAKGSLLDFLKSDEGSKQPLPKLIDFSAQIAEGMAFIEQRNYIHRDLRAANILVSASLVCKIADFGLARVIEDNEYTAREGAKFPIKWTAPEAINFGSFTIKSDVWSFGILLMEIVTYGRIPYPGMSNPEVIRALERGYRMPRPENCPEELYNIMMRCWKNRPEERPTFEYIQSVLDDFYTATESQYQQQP

Lyn = target: T4, Lyn (Homo sapiens, UniProt P07948); assay: Kinase inhibition assay (33P transfer), Lyn; conditions: Table 6, Lyn-1 kinase inhibition class
T4 construct: Kinases are expressed as either kinase domains or full length constructs; made in house
T4 sequence (P07948 whole entry, species assumed, the tested form may be a part): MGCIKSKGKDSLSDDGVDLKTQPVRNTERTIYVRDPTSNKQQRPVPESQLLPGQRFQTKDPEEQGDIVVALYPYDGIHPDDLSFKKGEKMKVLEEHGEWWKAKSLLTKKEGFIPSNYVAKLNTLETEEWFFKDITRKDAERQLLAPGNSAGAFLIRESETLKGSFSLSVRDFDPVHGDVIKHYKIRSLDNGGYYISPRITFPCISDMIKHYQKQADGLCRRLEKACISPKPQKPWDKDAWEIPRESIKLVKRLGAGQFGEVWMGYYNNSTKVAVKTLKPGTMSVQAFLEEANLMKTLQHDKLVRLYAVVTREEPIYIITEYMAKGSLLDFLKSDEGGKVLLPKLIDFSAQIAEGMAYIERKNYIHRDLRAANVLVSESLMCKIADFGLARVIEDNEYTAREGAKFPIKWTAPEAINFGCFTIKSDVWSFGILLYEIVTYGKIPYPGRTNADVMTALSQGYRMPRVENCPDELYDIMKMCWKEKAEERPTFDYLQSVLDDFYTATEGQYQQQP
How it was run: as §1

EPHB4 = target: T5, EPHB4 (Homo sapiens, UniProt P54760); assay: Kinase inhibition assay (33P transfer), EPHB4; conditions: read-out: EPHB4-1
T5 construct: Kinases are expressed as either kinase domains or full length constructs; made in house
T5 sequence (P54760 16-987): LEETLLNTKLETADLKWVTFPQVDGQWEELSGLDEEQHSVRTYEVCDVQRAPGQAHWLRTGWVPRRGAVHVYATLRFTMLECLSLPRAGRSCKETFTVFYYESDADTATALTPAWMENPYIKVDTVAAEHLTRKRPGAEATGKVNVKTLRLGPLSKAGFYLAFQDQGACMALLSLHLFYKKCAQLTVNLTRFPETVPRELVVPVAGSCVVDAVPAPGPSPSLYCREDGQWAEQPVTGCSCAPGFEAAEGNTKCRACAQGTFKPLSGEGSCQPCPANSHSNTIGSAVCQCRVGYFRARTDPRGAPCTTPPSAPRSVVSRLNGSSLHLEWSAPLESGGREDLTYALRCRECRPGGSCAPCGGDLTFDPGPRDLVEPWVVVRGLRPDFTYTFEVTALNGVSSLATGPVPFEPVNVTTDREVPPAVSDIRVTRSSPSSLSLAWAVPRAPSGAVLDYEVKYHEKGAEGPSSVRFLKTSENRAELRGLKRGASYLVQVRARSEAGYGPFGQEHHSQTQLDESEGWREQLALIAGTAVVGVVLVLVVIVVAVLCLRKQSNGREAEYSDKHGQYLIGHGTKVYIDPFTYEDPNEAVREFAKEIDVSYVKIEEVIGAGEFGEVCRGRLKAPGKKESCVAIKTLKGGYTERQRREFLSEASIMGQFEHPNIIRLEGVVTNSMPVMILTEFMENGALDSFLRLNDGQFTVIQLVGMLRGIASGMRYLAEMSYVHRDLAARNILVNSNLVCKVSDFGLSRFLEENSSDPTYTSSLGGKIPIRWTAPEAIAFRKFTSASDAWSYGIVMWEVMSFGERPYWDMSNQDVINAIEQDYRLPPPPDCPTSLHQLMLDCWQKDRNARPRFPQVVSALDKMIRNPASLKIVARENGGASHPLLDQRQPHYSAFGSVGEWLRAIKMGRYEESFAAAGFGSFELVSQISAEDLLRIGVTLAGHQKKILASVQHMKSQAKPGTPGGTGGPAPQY

Tek = target: T6, Tek (Homo sapiens, UniProt Q02763); assay: Kinase inhibition assay (33P transfer), Tek; conditions: read-out: Tek-1
T6 construct: Kinases are expressed as either kinase domains or full length constructs; made in house
How it was run: as §1

Ret-1 = target: T7, Ret-1 (Homo sapiens, UniProt P07949); assay: Kinase inhibition assay (33P transfer), Ret; conditions: Table 6, Ret-1 kinase inhibition class
T7 construct: Kinases are expressed as either kinase domains or full length constructs; made in house
T7 sequence (P07949 29-1114): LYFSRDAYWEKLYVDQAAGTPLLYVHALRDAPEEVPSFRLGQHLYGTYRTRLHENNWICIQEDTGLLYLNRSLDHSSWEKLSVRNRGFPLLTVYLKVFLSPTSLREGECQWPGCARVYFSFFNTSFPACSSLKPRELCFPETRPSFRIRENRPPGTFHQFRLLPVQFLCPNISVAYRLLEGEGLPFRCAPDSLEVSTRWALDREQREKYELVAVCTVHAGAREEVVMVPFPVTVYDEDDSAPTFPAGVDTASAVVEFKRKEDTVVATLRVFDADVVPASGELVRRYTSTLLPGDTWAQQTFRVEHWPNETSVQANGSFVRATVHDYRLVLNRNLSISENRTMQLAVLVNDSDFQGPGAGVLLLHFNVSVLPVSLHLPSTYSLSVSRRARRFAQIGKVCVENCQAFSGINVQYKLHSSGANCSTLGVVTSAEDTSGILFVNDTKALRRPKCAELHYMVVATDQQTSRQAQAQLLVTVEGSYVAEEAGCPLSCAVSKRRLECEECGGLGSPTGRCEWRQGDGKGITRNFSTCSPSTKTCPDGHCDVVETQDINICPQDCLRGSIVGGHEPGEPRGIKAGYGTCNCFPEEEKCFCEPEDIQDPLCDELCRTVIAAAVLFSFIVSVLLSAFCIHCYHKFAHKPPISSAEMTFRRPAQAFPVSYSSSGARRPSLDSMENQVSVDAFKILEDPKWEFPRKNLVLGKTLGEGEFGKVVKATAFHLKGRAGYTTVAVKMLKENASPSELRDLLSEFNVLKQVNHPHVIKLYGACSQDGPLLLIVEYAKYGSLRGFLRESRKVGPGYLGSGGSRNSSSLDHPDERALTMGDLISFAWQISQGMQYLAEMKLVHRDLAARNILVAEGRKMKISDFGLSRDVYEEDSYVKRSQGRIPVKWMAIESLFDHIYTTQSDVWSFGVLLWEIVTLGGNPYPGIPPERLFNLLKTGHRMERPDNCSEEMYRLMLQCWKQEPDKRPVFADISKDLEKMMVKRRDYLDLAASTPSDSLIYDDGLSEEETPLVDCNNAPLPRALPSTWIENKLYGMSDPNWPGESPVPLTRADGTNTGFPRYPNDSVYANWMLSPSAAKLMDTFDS

Zap-70 = target: T8, Zap-70 (Homo sapiens, UniProt P43403); assay: Kinase inhibition assay (33P transfer), Zap-70; conditions: Table 3; read-out: Zap-1
T8 construct: Kinases are expressed as either kinase domains or full length constructs; made in house
T8 sequence (P43403 1-619): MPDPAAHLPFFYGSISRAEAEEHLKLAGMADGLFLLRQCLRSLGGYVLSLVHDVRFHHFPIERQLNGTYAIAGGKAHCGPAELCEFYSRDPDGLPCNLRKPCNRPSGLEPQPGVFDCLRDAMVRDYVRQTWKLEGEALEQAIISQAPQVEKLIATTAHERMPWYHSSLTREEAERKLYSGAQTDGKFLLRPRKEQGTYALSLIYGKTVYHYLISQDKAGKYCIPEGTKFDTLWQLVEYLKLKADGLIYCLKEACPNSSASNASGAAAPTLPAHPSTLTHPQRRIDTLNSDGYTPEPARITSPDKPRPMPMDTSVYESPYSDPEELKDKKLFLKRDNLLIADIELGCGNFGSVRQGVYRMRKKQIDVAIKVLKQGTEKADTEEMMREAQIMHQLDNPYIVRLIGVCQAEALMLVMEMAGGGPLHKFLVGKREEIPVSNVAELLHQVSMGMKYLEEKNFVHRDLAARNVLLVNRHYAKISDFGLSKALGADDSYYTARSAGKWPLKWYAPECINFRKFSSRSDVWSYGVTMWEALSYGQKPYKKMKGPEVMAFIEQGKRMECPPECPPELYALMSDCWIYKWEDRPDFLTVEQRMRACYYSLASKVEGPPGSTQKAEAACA
How it was run: (§2)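 33P-ATP transfer to coated synthetic polymer substrates; acid wash (0.5% H3PO4), scintillant, liquid scintillation count. Enzymes: His- or GST-fusion kinases from E. coli or High Five insect cells.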

Kdr = target: T9, Kdr (Homo sapiens, UniProt P35968); assay: Kinase inhibition assay (33P transfer), Kdr; conditions: Table 3; read-out: KDR-1
T9 construct: Kinases are expressed as either kinase domains or full length constructs; made in house
T9 sequence (P35968 20-1356, species assumed): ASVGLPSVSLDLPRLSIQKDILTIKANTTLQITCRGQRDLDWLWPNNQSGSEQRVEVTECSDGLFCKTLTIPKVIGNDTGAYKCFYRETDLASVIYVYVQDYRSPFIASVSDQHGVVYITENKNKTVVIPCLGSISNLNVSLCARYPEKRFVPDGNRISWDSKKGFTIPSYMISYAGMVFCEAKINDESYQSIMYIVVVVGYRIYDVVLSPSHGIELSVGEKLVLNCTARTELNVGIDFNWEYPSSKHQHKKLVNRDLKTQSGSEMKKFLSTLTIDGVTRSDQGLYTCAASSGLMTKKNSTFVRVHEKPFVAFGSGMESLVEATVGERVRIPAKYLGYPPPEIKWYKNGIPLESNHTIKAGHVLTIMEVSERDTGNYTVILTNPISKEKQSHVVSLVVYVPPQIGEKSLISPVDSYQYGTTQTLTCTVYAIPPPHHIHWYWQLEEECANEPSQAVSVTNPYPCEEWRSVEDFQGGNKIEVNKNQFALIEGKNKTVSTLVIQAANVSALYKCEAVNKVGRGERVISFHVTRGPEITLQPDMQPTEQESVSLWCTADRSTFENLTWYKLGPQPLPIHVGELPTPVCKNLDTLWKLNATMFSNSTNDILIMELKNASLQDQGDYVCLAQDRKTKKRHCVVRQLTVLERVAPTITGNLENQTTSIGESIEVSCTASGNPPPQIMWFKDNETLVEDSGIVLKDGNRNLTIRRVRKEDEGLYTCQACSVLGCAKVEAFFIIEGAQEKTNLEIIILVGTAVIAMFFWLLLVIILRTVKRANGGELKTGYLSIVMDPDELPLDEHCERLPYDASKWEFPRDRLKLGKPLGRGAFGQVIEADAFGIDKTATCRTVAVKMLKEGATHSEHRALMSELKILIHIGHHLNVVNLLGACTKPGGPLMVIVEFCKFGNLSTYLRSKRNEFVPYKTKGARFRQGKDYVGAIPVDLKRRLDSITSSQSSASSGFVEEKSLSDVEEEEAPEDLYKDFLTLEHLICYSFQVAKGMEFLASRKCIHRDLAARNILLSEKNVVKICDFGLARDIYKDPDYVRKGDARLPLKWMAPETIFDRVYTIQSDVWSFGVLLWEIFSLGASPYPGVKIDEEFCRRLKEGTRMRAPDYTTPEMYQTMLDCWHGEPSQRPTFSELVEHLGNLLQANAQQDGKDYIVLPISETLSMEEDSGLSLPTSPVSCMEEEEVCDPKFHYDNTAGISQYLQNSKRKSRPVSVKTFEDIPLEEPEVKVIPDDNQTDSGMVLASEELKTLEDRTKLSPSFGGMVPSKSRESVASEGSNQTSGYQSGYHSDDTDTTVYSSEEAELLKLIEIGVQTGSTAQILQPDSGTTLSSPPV
How it was run: as §2

T1 sequence (P08581 25-1390): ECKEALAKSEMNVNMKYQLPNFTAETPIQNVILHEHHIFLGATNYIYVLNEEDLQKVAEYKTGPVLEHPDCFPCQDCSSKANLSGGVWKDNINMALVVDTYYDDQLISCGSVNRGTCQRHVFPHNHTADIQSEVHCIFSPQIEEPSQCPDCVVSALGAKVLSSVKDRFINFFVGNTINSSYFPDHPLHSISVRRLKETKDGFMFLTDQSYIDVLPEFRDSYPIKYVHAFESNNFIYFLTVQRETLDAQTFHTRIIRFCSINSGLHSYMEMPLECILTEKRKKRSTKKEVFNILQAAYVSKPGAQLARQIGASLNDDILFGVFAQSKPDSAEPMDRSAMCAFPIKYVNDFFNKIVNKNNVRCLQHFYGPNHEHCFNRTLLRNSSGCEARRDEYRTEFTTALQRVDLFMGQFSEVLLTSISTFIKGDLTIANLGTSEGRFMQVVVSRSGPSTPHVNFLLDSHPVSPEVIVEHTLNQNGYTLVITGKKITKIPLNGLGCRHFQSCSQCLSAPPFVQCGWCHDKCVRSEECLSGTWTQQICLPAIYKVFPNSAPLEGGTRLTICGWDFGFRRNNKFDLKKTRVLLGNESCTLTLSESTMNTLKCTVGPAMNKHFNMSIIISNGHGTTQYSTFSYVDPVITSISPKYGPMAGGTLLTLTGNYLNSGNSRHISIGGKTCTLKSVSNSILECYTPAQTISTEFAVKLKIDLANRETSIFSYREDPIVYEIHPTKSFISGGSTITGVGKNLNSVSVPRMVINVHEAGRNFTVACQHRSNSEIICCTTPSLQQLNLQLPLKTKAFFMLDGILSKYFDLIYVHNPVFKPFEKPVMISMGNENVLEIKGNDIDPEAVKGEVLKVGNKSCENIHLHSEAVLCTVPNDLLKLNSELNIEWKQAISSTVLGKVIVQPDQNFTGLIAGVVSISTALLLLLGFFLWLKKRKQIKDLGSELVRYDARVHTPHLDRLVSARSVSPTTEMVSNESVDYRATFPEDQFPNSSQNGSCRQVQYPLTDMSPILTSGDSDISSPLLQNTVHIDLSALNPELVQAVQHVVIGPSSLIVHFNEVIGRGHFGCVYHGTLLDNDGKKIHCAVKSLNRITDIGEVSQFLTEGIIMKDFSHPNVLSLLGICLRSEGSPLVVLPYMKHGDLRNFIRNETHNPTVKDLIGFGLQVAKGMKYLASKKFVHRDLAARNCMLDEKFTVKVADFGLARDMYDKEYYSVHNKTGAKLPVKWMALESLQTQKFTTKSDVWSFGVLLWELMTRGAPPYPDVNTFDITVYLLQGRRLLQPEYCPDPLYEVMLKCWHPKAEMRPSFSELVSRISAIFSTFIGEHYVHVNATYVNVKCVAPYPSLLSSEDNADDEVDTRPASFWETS

Compound | IC50 (c-Met) [µM] | IC50 (FGFR1) [µM] | IC50 (Hck-1) [µM] | IC50 (Lyn) [µM] | IC50 (EPHB4) [µM] | IC50 (Tek) [µM] | IC50 (Ret-1) [µM] | IC50 (Zap-70) [µM] | IC50 (Kdr) [µM]
COc1cc(Nc2ncnc(-n3ccc4ccc(Cl)cc43)n2)cc(OC)c1OC [Compound 237] | 5.83 to 8.5 | 5.83 to 8.5 | > 10.9 | 5.83 to 8.5 | 8.5 to 10.9 | > 10.9 | 5.83 to 8.5 | 8.5 to 10.9 | < 0.971
COc1cc(Nc2ncnc(Nc3ccc(Cl)cc3F)n2)cc(OC)c1OC [Compound 306] | 5.91 to 8.62 | 0.986 to 5.91 | 8.62 to 11.1 | < 0.986 | 0.986 to 5.91 | > 11.1 | < 0.986 | > 11.1 | < 0.986
COCCOc1ccc(Nc2ncnc(-n3c(N)nc4ccccc43)n2)cc1OCCOC [Compound 302] | > 9.97 | 0.886 to 5.32 | > 9.97 | > 9.97 | > 9.97 | > 9.97 | > 9.97 | > 9.97 | 0.886 to 5.32
COc1cc(Nc2ncnc(Nc3ccc(OCc4ccccc4)cc3)n2)cc(OC)c1 [Compound 156] | 8.15 to 10.5 | 0.931 to 5.59 | > 10.5 | 5.59 to 8.15 | > 10.5 | > 10.5 | > 10.5 | > 10.5 | 5.59 to 8.15
COc1ccc(Nc2ncnc(Nc3ccc4[nH]ccc4c3)n2)cc1OC [Compound 115] | > 12.4 | 6.62 to 9.66 | > 12.4 | 6.62 to 9.66 | 9.66 to 12.4 | > 12.4 | 1.1 to 6.62 | > 12.4 | 1.1 to 6.62
COCCOc1ccc(Nc2ncnc(Nc3cc(-c4ccco4)n[nH]3)n2)cc1OCCOC [Compound 328] | < 0.856 | 0.856 to 5.13 | 5.13 to 7.49 | 0.856 to 5.13 | > 9.63 | 5.13 to 7.49 | 0.856 to 5.13 | > 9.63 | < 0.856
COCCOc1ccc(Nc2ncnc(Nc3ccc(C)c(O)c3)n2)cc1OC [Compound 123] | > 11.3 | 1.01 to 6.04 | 6.04 to 8.81 | < 1.01 | > 11.3 | 8.81 to 11.3 | < 1.01 | > 11.3 | < 1.01
COc1cc(Nc2ncnc(-n3ccc4c(OC)cccc43)n2)cc(OC)c1OC [Compound 238] | > 11 | > 11 | > 11 | > 11 | > 11 | > 11 | > 11 | > 11 | 0.982 to 5.89
Cc1cccc(Nc2ncnc(Nc3ccc4[nH]ccc4c3)n2)c1 [Compound 110] | 11.1 to 14.2 | < 1.26 | 7.59 to 11.1 | < 1.26 | 11.1 to 14.2 | > 14.2 | 1.26 to 7.59 | > 14.2 | < 1.26
COc1cc(Nc2ncnc(N3CCc4ccccc43)n2)cc(OC)c1OC [Compound 184] | 9.22 to 11.9 | 6.33 to 9.22 | > 11.9 | 1.05 to 6.33 | 6.33 to 9.22 | > 11.9 | > 11.9 | > 11.9 | < 1.05
C#Cc1cccc(Nc2ncnc(Nc3ccc(OC)c(OC)c3)n2)c1 [Compound 116] | > 13 | > 13 | > 13 | > 13 | > 13 | > 13 | > 13 | > 13 | 6.91 to 10.1
CCOc1ccc(Nc2ncnc(Nc3ccc(C)c(O)c3)n2)cc1OCC [Compound 121] | 9.18 to 11.8 | 1.05 to 6.29 | > 11.8 | < 1.05 | > 11.8 | > 11.8 | < 1.05 | > 11.8 | < 1.05
COc1cc(Nc2ncnc(Nc3ccc(C)cc3)n2)cc(OC)c1OC [Compound 930] | 9.53 to 12.2 | 6.53 to 9.53 | 6.53 to 9.53 | < 1.09 | 6.53 to 9.53 | > 12.2 | 1.09 to 6.53 | > 12.2 | < 1.09
COc1cc(Nc2ncnc(Nc3nnc(-c4ccccc4)[nH]3)n2)cc(OC)c1OC [Compound 311] | 0.951 to 5.71 | > 10.7 | > 10.7 | > 10.7 | > 10.7 | > 10.7 | > 10.7 | > 10.7 | 0.951 to 5.71
COc1cc(Nc2ncnc(Nc3ccc4c(c3)OCO4)n2)cc(OC)c1OC [Compound 252] | > 11.3 | 1.01 to 6.04 | > 11.3 | < 1.01 | 1.01 to 6.04 | > 11.3 | > 11.3 | > 11.3 | < 1.01
NC(=O)c1cccc(Nc2ncnc(Nc3cc(-c4ccco4)n[nH]3)n2)c1 [Compound 342] | 1.1 to 6.62 | < 1.1 | 6.62 to 9.66 | 1.1 to 6.62 | 1.1 to 6.62 | > 12.4 | < 1.1 | > 12.4 | < 1.1
COc1cc(Nc2ncnc(-n3c(N)nc4ccccc43)n2)ccc1OCCn1ccnn1 [Compound 324] | > 10.1 | < 0.9 | > 10.1 | > 10.1 | > 10.1 | 0.9 to 5.4 | < 0.9 | > 10.1 | < 0.9
COc1ccc2c(c1)c(CCNC(C)=O)cn2-c1ncnc(Nc2cc(OC)c(OC)c(OC)c2)n1 [Compound 339] | > 9.14 | > 9.14 | > 9.14 | > 9.14 | > 9.14 | > 9.14 | < 0.812 | > 9.14 | < 0.812
COc1cc(Nc2ncnc(N(c3ccccc3)c3nc4ccccc4[nH]3)n2)cc(OC)c1OC [Compound 335] | > 9.58 | 7.45 to 9.58 | > 9.58 | 0.852 to 5.11 | 0.852 to 5.11 | > 9.58 | < 0.852 | > 9.58 | < 0.852
COC(=O)c1sccc1Nc1ncnc(Nc2cc(OC)c(OC)c(OC)c2)n1 [Compound 315] | 8.38 to 10.8 | > 10.8 | > 10.8 | > 10.8 | > 10.8 | > 10.8 | > 10.8 | 8.38 to 10.8 | < 0.958
